Species: Rattus norvegicus
Assay: DrugMatrix - Regimen: Daily Repeat
Type: toxicity, organism-based, Sprague-Dawley
Design: regimen Daily Repeat, gender Male, age 6-8 weeks
Settings: in vivo, po, route oral GAVAGE, vehicle 100 % WATER; for ABSOLUTE BASOPHIL / ABSOLUTE EOSINOPHIL / ABSOLUTE LYMPHOCYTE / ABSOLUTE MONOCYTE / ABSOLUTE SEGMENTED NEUTROPHIL / BASOPHIL / EOSINOPHIL / ERYTHROCYTE COUNT / HEMATOCRIT / HEMOGLOBIN / LEUKOCYTE COUNT / LYMPHOCYTE / MEAN CORPUSCULAR HEMOGLOBIN / MEAN CORPUSCULAR HEMOGLOBIN CONCENTRATION / MEAN CORPUSCULAR VOLUME / MONOCYTE / NEUTROPHIL / NUCLEATED RED BLOOD CELLS / PLATELET COUNT: tissue Blood; for ALANINE AMINOTRANSFERASE / ALBUMIN / ALKALINE PHOSPHATASE / ASPARTATE AMINOTRANSFERASE / BLOOD UREA NITROGEN / CARBON DIOXIDE / CHLORIDE / CHOLESTEROL / CREATINE PHOSPHOKINASE / CREATININE / GLUCOSE / LACTATE DEHYDROGENASE / LIPASE / PHOSPHORUS / POTASSIUM / SODIUM / TOTAL BILIRUBIN / TOTAL PROTEIN / URIC ACID: tissue Plasma
[1] = 2 mg/kg, 120 h, dose level Low, time 5 day
[2] = 184 mg/kg, 72 h, dose level High, time 3 day
[3] = 184 mg/kg, 120 h, dose level High, time 5 day

What does the source list for C[C@]12C=CC(=O)C=C1CC[C@@H]1[C@@H]2[C@@H](O)C[C@@]2(C)[C@H]1CC[C@]2(O)C(=O)CO [PREDNISOLONE]?
ABSOLUTE BASOPHIL [1]: 0 CELLS/uL; ABSOLUTE EOSINOPHIL [1]: 0 CELLS/uL; ABSOLUTE LYMPHOCYTE [1]: 11293 CELLS/uL; ABSOLUTE MONOCYTE [1]: 44.33 CELLS/uL; ABSOLUTE SEGMENTED NEUTROPHIL [1]: 929.33 CELLS/uL; BASOPHIL [1]: 0%; EOSINOPHIL [1]: 0%; ERYTHROCYTE COUNT [1]: 6.06 x10E6/uL; HEMATOCRIT [1]: 36.67%; HEMOGLOBIN [1]: 14.5 G/DL; LEUKOCYTE COUNT [1]: 12.27 x10E3/uL; LYMPHOCYTE [1]: 92.33%; MEAN CORPUSCULAR HEMOGLOBIN [1]: 23.9 pg; MEAN CORPUSCULAR HEMOGLOBIN CONCENTRATION [1]: 39.53 G/DL; MEAN CORPUSCULAR VOLUME [1]: 60.53 fL; MONOCYTE [1]: 0.33%; NEUTROPHIL [1]: 7.33%; NUCLEATED RED BLOOD CELLS [1]: 0.33 /100WBC; PLATELET COUNT [1]: 1186.33 x10E3/uL; ALANINE AMINOTRANSFERASE [1]: 41.33 u/L; ALBUMIN [1]: 4.37 G/DL; ALKALINE PHOSPHATASE [1]: 333.67 u/L; ASPARTATE AMINOTRANSFERASE [1]: 88.67 u/L; BLOOD UREA NITROGEN [1]: 16.33 mg/dL; CARBON DIOXIDE [1]: 26.67 mmol/L; CHLORIDE [1]: 101 MEQ/L; CHOLESTEROL [1]: 55.33 mg/dL; CREATINE PHOSPHOKINASE [1]: 433 u/L; CREATININE [1]: 0.17 mg/dL; GLUCOSE [1]: 143.33 mg/dL; LACTATE DEHYDROGENASE [1]: 390.33 u/L; LIPASE [1]: 9 u/L; PHOSPHORUS [1]: 10.87 mg/dL; POTASSIUM [1]: 5.88 MEQ/L; SODIUM [1]: 142.2 MEQ/L; TOTAL BILIRUBIN [1]: 0.23 mg/dL; TOTAL PROTEIN [1]: 6.1 G/DL; URIC ACID [1]: 1.87 mg/dL; ABSOLUTE BASOPHIL [2]: 0 CELLS/uL; ABSOLUTE EOSINOPHIL [2]: 0 CELLS/uL; ABSOLUTE LYMPHOCYTE [2]: 4216.33 CELLS/uL; ABSOLUTE MONOCYTE [2]: 85 CELLS/uL; ABSOLUTE SEGMENTED NEUTROPHIL [2]: 2332 CELLS/uL; BASOPHIL [2]: 0%; EOSINOPHIL [2]: 0%; ERYTHROCYTE COUNT [2]: 6.23 x10E6/uL; HEMATOCRIT [2]: 38.3%; HEMOGLOBIN [2]: 14.57 G/DL; LEUKOCYTE COUNT [2]: 6.63 x10E3/uL; LYMPHOCYTE [2]: 63.67%; MEAN CORPUSCULAR HEMOGLOBIN [2]: 23.4 pg; MEAN CORPUSCULAR HEMOGLOBIN CONCENTRATION [2]: 38.03 G/DL; MEAN CORPUSCULAR VOLUME [2]: 61.47 fL; MONOCYTE [2]: 1.33%; NEUTROPHIL [2]: 35%; NUCLEATED RED BLOOD CELLS [2]: 0 /100WBC; PLATELET COUNT [2]: 1200 x10E3/uL; ALANINE AMINOTRANSFERASE [2]: 57.33 u/L; ALBUMIN [2]: 5.07 G/DL; ALKALINE PHOSPHATASE [2]: 269.33 u/L; ASPARTATE AMINOTRANSFERASE [2]: 67 u/L; BLOOD UREA NITROGEN [2]: 18.67 mg/dL; CARBON DIOXIDE [2]: 25 mmol/L; CHLORIDE [2]: 99 MEQ/L; CHOLESTEROL [2]: 84.33 mg/dL; CREATINE PHOSPHOKINASE [2]: 258 u/L; CREATININE [2]: 0.22 mg/dL; GLUCOSE [2]: 170 mg/dL; LACTATE DEHYDROGENASE [2]: 120.33 u/L; LIPASE [2]: 12.33 u/L; PHOSPHORUS [2]: 11.57 mg/dL; POTASSIUM [2]: 5.92 MEQ/L; SODIUM [2]: 142.73 MEQ/L; TOTAL BILIRUBIN [2]: 0.17 mg/dL; TOTAL PROTEIN [2]: 7.07 G/DL; URIC ACID [2]: 2.57 mg/dL; ABSOLUTE BASOPHIL [3]: 0 CELLS/uL; ABSOLUTE EOSINOPHIL [3]: 20.33 CELLS/uL; ABSOLUTE LYMPHOCYTE [3]: 3939 CELLS/uL; ABSOLUTE MONOCYTE [3]: 40.67 CELLS/uL; ABSOLUTE SEGMENTED NEUTROPHIL [3]: 2333.33 CELLS/uL; BASOPHIL [3]: 0%; EOSINOPHIL [3]: 0.33%; ERYTHROCYTE COUNT [3]: 6.44 x10E6/uL; HEMATOCRIT [3]: 38.23%; HEMOGLOBIN [3]: 15.03 G/DL; LEUKOCYTE COUNT [3]: 6.33 x10E3/uL; LYMPHOCYTE [3]: 61.33%; MEAN CORPUSCULAR HEMOGLOBIN [3]: 23.4 pg; MEAN CORPUSCULAR HEMOGLOBIN CONCENTRATION [3]: 39.37 G/DL; MEAN CORPUSCULAR VOLUME [3]: 59.4 fL; MONOCYTE [3]: 0.67%; NEUTROPHIL [3]: 37.67%; NUCLEATED RED BLOOD CELLS [3]: 0.33 /100WBC; PLATELET COUNT [3]: 1142.33 x10E3/uL; ALANINE AMINOTRANSFERASE [3]: 78.33 u/L; ALBUMIN [3]: 5.07 G/DL; ALKALINE PHOSPHATASE [3]: 230.33 u/L; ASPARTATE AMINOTRANSFERASE [3]: 90.33 u/L; BLOOD UREA NITROGEN [3]: 18.67 mg/dL; CARBON DIOXIDE [3]: 23.33 mmol/L; CHLORIDE [3]: 100 MEQ/L; CHOLESTEROL [3]: 63.67 mg/dL; CREATINE PHOSPHOKINASE [3]: 788.33 u/L; CREATININE [3]: 0.21 mg/dL; GLUCOSE [3]: 184.67 mg/dL; LACTATE DEHYDROGENASE [3]: 177.67 u/L; LIPASE [3]: 11.67 u/L; PHOSPHORUS [3]: 10.9 mg/dL; POTASSIUM [3]: 5.41 MEQ/L; SODIUM [3]: 145.27 MEQ/L; TOTAL BILIRUBIN [3]: 0.23 mg/dL; TOTAL PROTEIN [3]: 6.93 G/DL; URIC ACID [3]: 1.27 mg/dL

Source: ChEMBL document CHEMBL3885881, “DrugMatrix”
